Data taken from patent US20260334439A1, “BCAT2 INHIBITORS” (Agios Pharmaceuticals, Inc., priority 2023, published 2026).

What was measured:
[1] = biological target: T1, BCAT2 (Homo sapiens, UniProt O15382); test: BCAT2 cell inhibition using engineered A549 cells (MUT KO, BCAT1 KO; 13C6-KMV formation by LC-MS/MS); type: cell-based; parameters: expressed endogenous BCAT2; endogenous in cells; host or cells: A549 cells, MUT knockout and BCAT1 knockout
T1 sequence (O15382 28-392): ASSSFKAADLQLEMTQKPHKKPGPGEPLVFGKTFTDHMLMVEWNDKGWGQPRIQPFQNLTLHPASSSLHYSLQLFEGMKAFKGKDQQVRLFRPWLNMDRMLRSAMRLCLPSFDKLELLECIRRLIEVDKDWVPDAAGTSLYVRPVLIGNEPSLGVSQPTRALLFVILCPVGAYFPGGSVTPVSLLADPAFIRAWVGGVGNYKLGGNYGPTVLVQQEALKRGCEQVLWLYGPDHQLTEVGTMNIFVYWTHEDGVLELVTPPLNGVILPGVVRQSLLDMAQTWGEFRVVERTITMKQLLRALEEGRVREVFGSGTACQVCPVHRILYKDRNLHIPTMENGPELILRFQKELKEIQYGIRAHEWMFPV
Outline: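 Medium 13C6-KMV formation is read by LC-MS/MS after PFBHA derivatization with d8-KMV internal standard. Cells are CRISPR MUT/BCAT1 double-knockout A549 expressing endogenous BCAT2, given compound 15 min before labelled isoleucine (800 uM, added 1:1) for 24 h. CTG viability run in parallel; replicates averaged.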

[2] = biological target: T1, BCAT2; test: BCAT2 in vitro enzyme inhibition assay (hBCAT2, glutamate dehydrogenase/diaphorase/resazurin coupled fluorescence read); type: biochemical; conditions: hBCAT2, 1 h preincubation at 25° C., one hour reaction; average where tested multiple times
Outline: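 hBCAT2 (0.33 μg/mL in mix) preincubated 1 h at 25 °C with compound (top 100 μM, 3-fold, 10 points) in Tris pH 8.0/NaCl/BSA; substrate mix added (L-leucine, α-ketoglutarate, GDH, NAD, diaphorase, resazurin), quenched with SDS after 1 h, fluorescence Ex 540/Em 590; duplicates, repeat tests averaged.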

| IC50 ([1]; read-out: BCAT2 Cell Inhibition (IC50), engineered A549 cells, 24 hours, 13C6-KMV in media, average where tested multiple times) [nM] | IC50 [2] [nM] | IC50 [1] [nM] | SMILES |
| --- | --- | --- | --- |
| > 1000 | < 100 | – | COc1cccc(F)c1C(=O)N[C@H]1CCC[C@@H](n2c(-c3ccccc3F)nc3cnc(-c4nc[nH]n4)cc32)C1 [Example 2, 2-fluoro-N-((1S,3R)-3-(2-(2-fluorophenyl)-6-(1H-1,2,4-triazol-3-yl)-1H-imidazo[4,5-c]pyridin-1-yl)cyclohexyl)-6-methoxybenzamide] |
| – | < 100 | < 100 | O=C(N[C@H]1CCC[C@@H](n2c(-c3ccccc3F)nc3cnc(-c4nc[nH]n4)cc32)C1)c1cc(Cl)ccc1OC1CCOC1 (stereo partly drawn) [Example 83, 5-chloro-N-((1S,3R)-3-(2-(2-fluorophenyl)-6-(1H-1,2,4-triazol-3-yl)-1H-imidazo[4,5-c]pyridin-1-yl)cyclohexyl)-2-((tetrahydrofuran-3-yl)oxy)benzamide] |
| – | < 100 | 100 to 500 | O=C(N[C@H]1CCC[C@@H](n2c(-c3ccccc3F)nc3cnc(-c4nc[nH]n4)cc32)C1)c1cc(Cl)ccc1CO [Example 40, 5-chloro-N-((1S,3R)-3-(2-(2-fluorophenyl)-6-(1H-1,2,4-triazol-3-yl)-1H-imidazo[4,5-c]pyridin-1-yl)cyclohexyl)-2-(hydroxymethyl)benzamide] |
| – | < 100 | < 100 | O=C1c2cc(F)ccc2CN1[C@H]1CCC[C@@H](n2c(-c3ccccc3F)nc3cnc(-n4nccn4)cc32)[C@@H]1O [Example 185, 6-fluoro-2-((1S,2S,3R)-3-(2-(2-fluorophenyl)-6-(2H-1,2,3-triazol-2-yl)-1H-imidazo[4,5-c]pyridin-1-yl)-2-hydroxycyclohexyl)isoindolin-1-one] |
| – | < 100 | 500 to 1000 | CC(C)Cc1nc2cnc(-n3nccn3)cc2n1[C@@H]1CCC[C@H](NC(=O)c2cc(Cl)ccc2OCCO)C1 [Example 57, 5-chloro-2-(2-hydroxyethoxy)-N-((1S,3R)-3-(2-isobutyl-6-(2H-1,2,3-triazol-2-yl)-1H-imidazo[4,5-c]pyridin-1-yl)cyclohexyl)benzamide] |
| – | < 100 | 100 to 500 | CN1C[C@H](NC(=O)c2cc(Cl)ccc2F)C[C@H](n2c(-c3ccccc3F)nc3cnc(-c4nc[nH]n4)cc32)C1 [Example 145, 5-chloro-2-fluoro-N-((3R,5S)-5-(2-(2-fluorophenyl)-6-(1H-1,2,4-triazol-3-yl)-1H-imidazo[4,5-c]pyridin-1-yl)-1-methylpiperidin-3-yl)benzamide] |
| – | < 100 | < 100 | O=C(N[C@H]1CCC[C@@H](n2c(-c3c(O)cccc3F)nc3cnc(-c4nc[nH]n4)cc32)C1)c1cc(Cl)ccn1 [Example 70, 4-chloro-N-((1S,3R)-3-(2-(2-fluoro-6-hydroxyphenyl)-6-(1H-1,2,4-triazol-3-yl)-1H-imidazo[4,5-c]pyridin-1-yl)cyclohexyl)picolinamide] |
| – | < 100 | 100 to 500 | CN1C[C@H](NC(=O)c2cc(Cl)ccc2OCCO)C[C@H](n2c(-c3ccccc3F)nc3cnc(-c4nc[nH]n4)cc32)C1 [Example 150, 5-chloro-N-((3R,5S)-5-(2-(2-fluorophenyl)-6-(1H-1,2,4-triazol-3-yl)-1H-imidazo[4,5-c]pyridin-1-yl)-1-methylpiperidin-3-yl)-2-(2-hydroxyethoxy)benzamide] |
| – | < 100 | < 100 | O=C1c2cc(F)ccc2CN1[C@H]1CCC[C@@H](n2c(-c3ncccc3F)nc3cnc(-c4nc[nH]n4)cc32)C1 [Example 170, 6-fluoro-2-((1S,3R)-3-(2-(3-fluoropyridin-2-yl)-6-(1H-1,2,4-triazol-3-yl)-1H-imidazo[4,5-c]pyridin-1-yl)cyclohexyl)isoindolin-1-one] |
| – | < 100 | < 100 | O=C(N[C@H]1CCC[C@@H](n2c(-c3ccccc3F)nc3cnc(-c4nc[nH]n4)cc32)C1)c1cc(F)ccn1 [Example 14, 4-fluoro-N-((1S,3R)-3-(2-(2-fluorophenyl)-6-(1H-1,2,4-triazol-3-yl)-1H-imidazo[4,5-c]pyridin-1-yl)cyclohexyl)picolinamide] |
| – | < 100 | < 100 | N#Cc1ccccc1-c1nc2cnc(-c3nc[nH]n3)cc2n1[C@@H]1CCC[C@H](NC(=O)c2cc(Cl)ccn2)C1 [Example 45, 4-chloro-N-((1S,3R)-3-(2-(2-cyanophenyl)-6-(1H-1,2,4-triazol-3-yl)-1H-imidazo[4,5-c]pyridin-1-yl)cyclohexyl)picolinamide] |
| – | < 100 | < 100 | COc1ccc(Cl)cc1C(=O)N[C@H]1CCC[C@@H](n2c(-c3ccccc3F)nc3cnc(-c4nc[nH]n4)cc32)[C@@H]1O [Example 102, 5-chloro-N-((1S,2R,3R)-3-(2-(2-fluorophenyl)-6-(1H-1,2,4-triazol-3-yl)-1H-imidazo[4,5-c]pyridin-1-yl)-2-hydroxycyclohexyl)-2-methoxybenzamide] |
| – | < 100 | < 100 | O=C1c2cc(F)ccc2CN1[C@H]1CCC[C@@H](n2c(-c3ccccc3OC(F)F)nc3ccc(-c4nc[nH]n4)c(F)c32)C1 [compound 238] |
| – | < 100 | < 100 | Cc1coc(-c2cc3c(cn2)nc(-c2ccccc2OCCO)n3[C@@H]2CCC[C@H](N3Cc4ccc(F)cc4C3=O)C2)n1 [Example 181, 6-fluoro-2-((1S,3R)-3-(2-(2-(2-hydroxyethoxy)phenyl)-6-(4-methyloxazol-2-yl)-1H-imidazo[4,5-c]pyridin-1-yl)cyclohexyl)isoindolin-1-one] |
| – | < 100 | < 100 | O=C1c2cc(Cl)ccc2CN1[C@H]1CCC[C@@H](n2c(-c3ccccc3OCCO)nc3cnc(-c4nc[nH]n4)cc32)C1 [Example 172, 6-chloro-2-((1S,3R)-3-(2-(2-(2-hydroxyethoxy)phenyl)-6-(1H-1,2,4-triazol-3-yl)-1H-imidazo[4,5-c]pyridin-1-yl)cyclohexyl)isoindolin-1-one] |
| – | < 100 | < 100 | CC(C)Oc1ccc(Cl)cc1C(=O)N[C@H]1CCC[C@@H](n2c(-c3ccccc3C#N)nc3cnc(-c4nc[nH]n4)cc32)C1 [Example 36, 5-chloro-N-((1S,3R)-3-(2-(2-cyanophenyl)-6-(1H-1,2,4-triazol-3-yl)-1H-imidazo[4,5-c]pyridin-1-yl)cyclohexyl)-2-isopropoxybenzamide] |
| – | < 100 | < 100 | CCOc1ccc(Cl)cc1C(=O)N[C@H]1CCC[C@@H](n2c(-c3ccccc3F)nc3cnc(-c4nc[nH]n4)cc32)C1 [Example 6, 5-chloro-2-ethoxy-N-((1S,3R)-3-(2-(2-fluorophenyl)-6-(1H-1,2,4-triazol-3-yl)-1H-imidazo[4,5-c]pyridin-1-yl)cyclohexyl)benzamide] |
| – | < 100 | < 100 | O=C1c2cc(Cl)ccc2CN1[C@H]1CCC[C@@H](n2c(-c3ccccc3F)nc3cnc(-c4nc[nH]n4)cc32)C1 [Example 168, 6-chloro-2-((1S,3R)-3-(2-(2-fluorophenyl)-6-(1H-1,2,4-triazol-3-yl)-1H-imidazo[4,5-c]pyridin-1-yl)cyclohexyl)isoindolin-1-one] |
| – | < 100 | < 100 | O=C(N[C@H]1CCC[C@@H](n2c(-c3ccccc3F)nc3cnc(-c4nc[nH]n4)cc32)C1)c1cc(Cl)ccc1OCCO [Example 34, 5-chloro-N-((1S,3R)-3-(2-(2-fluorophenyl)-6-(1H-1,2,4-triazol-3-yl)-1H-imidazo[4,5-c]pyridin-1-yl)cyclohexyl)-2-(2-hydroxyethoxy)benzamide] |
| – | < 100 | 100 to 500 | O=C(N[C@H]1CCC[C@@H](n2c(-c3ccccn3)nc3cnc(-c4nc[nH]n4)cc32)C1)c1cc(Cl)ccn1 [Example 25, 4-chloro-N-((1S,3R)-3-(2-(pyridin-2-yl)-6-(1H-1,2,4-triazol-3-yl)-1H-imidazo[4,5-c]pyridin-1-yl)cyclohexyl)picolinamide] |
| – | < 100 | < 100 | O=C(N[C@H]1CCC[C@@H](n2c(-c3ccccc3F)nc3cnc(-c4nc[nH]n4)cc32)C1)c1cc(Cl)ccc1O [Example 53, 5-chloro-N-((1S,3R)-3-(2-(2-fluorophenyl)-6-(1H-1,2,4-triazol-3-yl)-1H-imidazo[4,5-c]pyridin-1-yl)cyclohexyl)-2-hydroxybenzamide] |
| – | < 100 | < 100 | CO[C@@H]1C[C@H](NC(=O)c2cc(F)ccn2)C[C@H](n2c(-c3ccccc3F)nc3cnc(-c4nc[nH]n4)cc32)C1 [Example 114, 4-fluoro-N-((1R,3S,5R)-3-(2-(2-fluorophenyl)-6-(1H-1,2,4-triazol-3-yl)-1H-imidazo[4,5-c]pyridin-1-yl)-5-methoxycyclohexyl)picolinamide] |

| SMILES | IC50 ([1]; read-out: BCAT2 Cell Inhibition (IC50), engineered A549 cells, 24 hours, 13C6-KMV in media, average where tested multiple times) [nM] | IC50 [2] [nM] | IC50 [1] [nM] |
| --- | --- | --- | --- |
| CC(C)COc1ccc(Cl)cc1C(=O)N[C@H]1CCC[C@@H](n2c(-c3ccccc3C#N)nc3cnc(-c4nc[nH]n4)cc32)C1 [Example 49, 5-chloro-N-((1S,3R)-3-(2-(2-cyanophenyl)-6-(1H-1,2,4-triazol-3-yl)-1H-imidazo[4,5-c]pyridin-1-yl)cyclohexyl)-2-isobutoxybenzamide] | – | < 100 | 100 to 500 |
